{
  "source": "patent US8859587B2",
  "about": "“(2E)-3-phenyl-N-[2,2,2-Trifluoro-1-[[8-quinolineamino)thiomethyl]amino]ethyl]-2-acrylamide and pharmaceutical uses thereof” (Chinese PLA General Hospital, priority 2010, dated 2014)",
  "assay_type_in_all_cases": "cell-based, Wistar rats",
  "key": {"[1]": {"tested_on": "primary cardiac muscle cells induced by TM", "experiment": "Cardiomyocyte apoptosis induced by TM, AnnexinV-FITC flow cytometer", "conditions": "for Cardiomyocyte apoptosis rate detected by flow cytometer (%): 24 h", "experimental": "The primary cardiac muscle cells obtained by the method according to the culture method of primary cardiac muscle cells of Example 1 were added with tunicamycin (TM) on the 4th day to perform interference test. The cells were randomly divided into 5 groups: solvent control group (DMSO), TM interference group (5 μg/ml), Compound of Formula I+TM interference group (10 μM+5 μg/ml), Compound of Formula I interference group ([…]+5 μg/ml), Compound of Formula I interference group ([…]+5 μg/ml).\nit is 24 h after drug interference, the cells were treated by the method of AnnexinV-FITC apoptosis kit, and the apoptosis was detected within 1 h by using a flow cytometer (BD ACScalibur, US Becton-Dickinson Company). For each sample, 14000 cells were collected and analyzed, the test was repeated for 3 times, and the average value was used as a result."}, "[2]": {"tested_on": "cardiac muscle cells under anoxia", "experiment": "Cardiomyocyte apoptosis induced by anoxia, high connotation screening (HCS Reader)", "conditions": "for Filament strength (actin filament) / Nucleus area / Nucleus strength / Short/long axis ratio of filament / cell count increase in comparison with the anoxia group / light flux / Cell count / Transmembrane potential (mitochondrial): anoxia 16 h; for Cell count / Transmembrane potential (mitochondrial): relative to control group = 1", "experimental": "neonate Wistar rats, rat age: within 24 h, male and female\ncardiac muscle cells were separated and cultured by referring to the method of differential adhesion, Wistar neonate […] newborn within 24 h were used, sterilized at skin of ventrum with iodine tincture and ethanol, subjected to thoracotomy using scissors at subxiphoid median line with a deviation to left, heart was taken out after slant thoracotomy and placed in PBS precooled with ice; the heart was softly blown and beaten with 0.01M PBS to remove blood cells and other tissues, then cut into pieces with 0.5 mm^3 size, washed with 0.01M PBS repeatedly for 2-3 times; the pieces were placed in conical flask, added with 4 ml of 0.125% pancretin, 1 ml of 0.1% collagenase II (final concentrations separately being 0.1% and 0.02%), shaken in 37° C. water bath for 10 min, the supernatant was discarded; then 4 ml of 0.125% pancretin and 1 ml of 0.1% collagenase II again, shaken in 37° C. water bath for digestion for 10 min, the supernatant was sucked and transferred to a centrifuge tube, and the supernatant was added with DMEM containing 10% FBS to terminate digestion; the step of shaking and digestion in water bath was repeated for 3-4 times, until the tissue pieces were completely digested; the collected cell suspension was centrifuged under 1000 rpm for 10 min, the supernatant was removed, then a culture medium was added for resuspension; the resuspended cells were inoculated in a cell culture flask, placed in CO2 incubator at 37° C. for incubation for 1.5 h, then the culture medium was sucked out, countered under microscope, then DMEM culture medium containing 10% FBS was used to adjust cell density, inoculated in an amount of 1×10^4 to a 96-well plate, placed in 5% CO2 incubator at 37° C. for 24 h, then half medium was replaced, a culture medium containing 0.1% Brdu was supplementally added; then the medium was replaced once per 48 h, and primary cardiac muscle cells were obtained after 4 days of cultivation.\n1. The separated cardiac muscle cells were inoculated to a 96-wells plate, 10^4 cells per well, and the volume of each well was 100 μl (marginal wells were filled with sterile PBS). After being cultivated in 5% CO2 and 37° C. incubator for 4 d, Formula I was separated added at different concentrations (5 μM, 10 μM, 20 μM) and treated for 30 min, then placed in a sealed 37° C. anoxia incubator (O2/CO2, 5:95) and continuously incubated for 16 h, and at the same time, anoxia control wells and the normal control wells were set and cultivated in 5% CO2, 37° C. incubator for 16 h.\n2. It was 30 min before the anoxia incubation was finished, each well was supplemented with 50 μl of culture medium and 50 μl of Mitotracker/Hoechst solution, and the cells were continuously incubated at 37° C. for 30 min.\n3. 100 μl of the fixing solution was preheated to 37° C. and separately added to each culture well, without sucking out culture medium, and incubation was performed under ventilation at room temperature for 10 min.\n4. The solution of each well was sucked out (the plate could be struck), washed with 1× Wash Buffer (100 uL/well) once. Carefulness was kept during operation and washing procedure, and slow sucking and adding liquid to maintain cell adhesion and integrity.\n5. Wash Buffer was sucked out, 1× penetrating buffer solution (100 uL/well) was added, incubated at room temperature for 15 min.\n6. The penetrating buffer solution in each well was sucked out, washed once with 100 μL/well of 1× Wash Buffer.\n7. The Wash Buffer in each well was sucked out (the plate could be struck), each well was added with 50 μl of Alexa Fluor 488 Phalloidin Solution, incubated at room temperature in dark for 30 min.\n8. The Alexa Fluor 488 Phalloidin solution in each well was sucked out, washed with 1× Wash Buffer (100 μl/well) twice, and added with 1× Wash Buffer (100 μl/well).\n9. The edge of plate was covered with a sealing membrane (for prevention of drying), and assayed with HCS Reader. […]"}, "[3]": {"tested_on": "elF2α and P-elF2α", "experiment": "Western blot of elF2α and P-elF2α expression", "conditions": "1, 2, 5, 10, 20, 40 μM for 48 h", "experimental": "(12000 rpm×10 min), collected supernatant. Nitrocellulose membrane was dipped in a transferring buffer for 15-20 min in advance. Sampled in 50 μg protein/lane, subjected to 10% polyacrylamide gel SDS-PAGE electrophoretic separation, the gel was then tiled in electrotransferring clamp, in which sponge, filter paper, gel, nitrocellulose membrane, filter paper and sponge were mounted from negative electrode to positive electrode in order. Constant current 350 mA, electrotransferred for 45 min. Electrotransferring membrane to […], the nitrocellulose membrane was taken out, the membrane was washed with TBST for 2 min, sealed with 5% defatted milk powder at room temperature for 1 h, added with first antibody (1:1000) and incubated at 4° C. overnight, the membrane was washed with TBST, 3 times×5 min, then […] second antibody was added, incubated at room temperature for 1 h, washed with TBST, 3 times×5 min, soaked separately with TSM1 and TSM2 for 5 min and 10 min, developed with chromogenic substrates 6.6 μl NBT and 3.3 μl BCIP dissolved in 1 ml of TSM2, after bonds become clear, the reaction was terminated by washing with water. After the end of development, the records were stored by scanning or taking photos."}},
  "data": [
    {"smiles": "O=C(/C=C/c1ccccc1)NC(NC(=S)Nc1cccc2cccnc12)C(Cl)(Cl)Cl", "note": "(stereo not shown) [Compound of Formula I, (2E)-3-phenyl-N-[2,2,2-trichloro-1-[[(8-quinolylamino)thiomethyl]amino]ethyl]-2-acrylamide]", "values": [
      {"measurement": "Cardiomyocyte apoptosis rate detected by flow cytometer (%)", "setting": "[1]; 10 μM + TM 5 μg/ml", "result": "22.98 ± 1.35^ab %"},
      {"measurement": "Cardiomyocyte apoptosis rate detected by flow cytometer (%)", "setting": "[1]; 20 μM + TM 5 μg/ml", "result": "20.13 ± 0.87^ab %"},
      {"measurement": "Cardiomyocyte apoptosis rate detected by flow cytometer (%)", "setting": "[1]; 40 μM + TM 5 μg/ml", "result": "18.64 ± 0.83^ab %"},
      {"measurement": "apoptosis rates in comparison with the TM group (flow cytometer)", "setting": "[1]; 10, 20, 40 μM, P<0.05", "result": "significantly decreased apoptosis rates"},
      {"measurement": "Filament strength (actin filament)", "setting": "[2]; 5 μM", "result": "498.03 ± 76.67"},
      {"measurement": "Nucleus area", "setting": "[2]; 5 μM", "result": "109.90 ± 3.97"},
      {"measurement": "Nucleus strength", "setting": "[2]; 5 μM", "result": "124.90 ± 2.25"},
      {"measurement": "Short/long axis ratio of filament", "setting": "[2]; 5 μM", "result": "0.75 ± 0.02"},
      {"measurement": "cell count increase in comparison with the anoxia group", "setting": "[2]; 5 μM", "result": 17.06, "unit": "%"},
      {"measurement": "light flux", "setting": "[2]; 5 μM", "result": "1201.92 ± 29.95"},
      {"measurement": "Cell count", "setting": "[2]; 5 μM", "result": "88.57% ± 7.64%"},
      {"measurement": "Transmembrane potential (mitochondrial)", "setting": "[2]; 5 μM", "result": "96.69% ± 5.06%"},
      {"measurement": "Filament strength (actin filament)", "setting": "[2]; 10 μM", "result": "503.64 ± 49.23"},
      {"measurement": "Nucleus area", "setting": "[2]; 10 μM", "result": "107.43 ± 7.77"},
      {"measurement": "Nucleus strength", "setting": "[2]; 10 μM", "result": "123.21 ± 2.71"},
      {"measurement": "Short/long axis ratio of filament", "setting": "[2]; 10 μM", "result": "0.74 ± 0.01"},
      {"measurement": "cell count increase in comparison with the anoxia group", "setting": "[2]; 10 μM", "result": 26.52, "unit": "%"},
      {"measurement": "light flux", "setting": "[2]; 10 μM", "result": "1166.12 ± 91.06"},
      {"measurement": "Cell count", "setting": "[2]; 10 μM", "result": "98.03% ± 16.24"},
      {"measurement": "Transmembrane potential (mitochondrial)", "setting": "[2]; 10 μM", "result": "97.19% ± 2.82^"},
      {"measurement": "Filament strength (actin filament)", "setting": "[2]; 20 μM", "result": "471.83 ± 69.38"},
      {"measurement": "Nucleus area", "setting": "[2]; 20 μM", "result": "111.90 ± 10.76"},
      {"measurement": "Nucleus strength", "setting": "[2]; 20 μM", "result": "121.40 ± 2.24"},
      {"measurement": "Short/long axis ratio of filament", "setting": "[2]; 20 μM", "result": "0.74 ± 0.02"},
      {"measurement": "cell count increase in comparison with the anoxia group", "setting": "[2]; 20 μM", "result": 30.22, "unit": "%"},
      {"measurement": "light flux", "setting": "[2]; 20 μM", "result": "1214.09 ± 107.59"},
      {"measurement": "Cell count", "setting": "[2]; 20 μM", "result": "101.73% ± 22.42%"},
      {"measurement": "Transmembrane potential (mitochondrial)", "setting": "[2]; 20 μM", "result": "99.40% ± 2.80%"},
      {"measurement": "effect on indexes of cardiac muscle cells under anoxia (nucleus area, nucleus strength, light flux, actin filament, transmembrane potential, cell count)", "setting": "[2]; highly anoxia condition", "result": "significantly improve the above indexes"},
      {"measurement": "expression level of P-elF2α", "setting": "[3]", "result": "gradually increases with the increase of the concentration"},
      {"measurement": "expression levels of elF2α", "setting": "[3]", "result": "no significant change"}
    ]}
  ]
}
